# Reference: ChEMBL document CHEMBL1141416, “Discovery of a potent and selective prostaglandin D2 receptor antagonist, [(3R)-4-(4-chloro-benzyl)-7-fluoro-5-(methylsulfonyl)-1,2,3,4-tetrahydrocyclopenta[b]indol-3-yl]-acetic acid (MK-0524)” (J Med Chem, 2007)
# Assays:
# [1] = target: Prostaglandin E2 receptor EP4 subtype (Homo sapiens, UniProt P35408); test: Binding affinity to human EP4 receptor expressed in HEK293 cells; type: cell-based
# [2] = Metabolic stability in rat hepatocytes after 2 hrs at 50 uM; type: ADME, cell-based, Hepatocyte; details: read-out: Stability
# [3] = Activity at human TP receptor in platelet rich plasma assessed as inhibition […]-induced platelet aggregation
# [4] = Bioavailability in Sprague-Dawley rat at 10 mg/kg, po and 5 mg/kg, iv; type: ADME, organism-based; details: in vivo
# [5] = Plasma clearance in Sprague-Dawley rat at 10 mg/kg, po and 5 mg/kg, iv; type: ADME, organism-based; set-up: unit not given here
# [6] = Volume of distribution in Sprague-Dawley rat at 10 mg/kg, po and 5 mg/kg, iv; type: ADME, organism-based; details: in vivo
# [7] = Cmax in Sprague-Dawley rat at 10 mg/kg, po; type: ADME, organism-based; set-up: dose 10 mg/kg, route oral; details: in vivo
# [8] = (§1) Cmax in Sprague-Dawley rat after 6 hrs at 10 mg/kg, po; type: ADME, organism-based; set-up: dose 10 mg/kg, route oral; details: Sprague-Dawley, in vivo
# [9] = Plasma half life in Sprague-Dawley rat at 5 mg/kg, iv; type: ADME, organism-based; set-up: dose 5 mg/kg, route intravenous
# [10] = Cmax in Sprague-Dawley rat biliary fluid by bile duct cannulation study at 5 mg/kg, iv; type: ADME, organism-based; set-up: dose 5 mg/kg, route intravenous
# [11] = Tmax in Sprague-Dawley rat biliary fluid by bile duct cannulation study at 5 mg/kg, iv; type: ADME, organism-based; set-up: dose 5 mg/kg, route intravenous
# Rattus norvegicus [12] = test: as §1; type: ADME, organism-based; set-up: dose 10 mg/kg, route oral; details: in vivo, 6 h
# [13] = Cmax in Sprague-Dawley rat at 100 mg/kg, po; type: ADME, organism-based; set-up: dose 100 mg/kg, route oral; details: in vivo
# [14] = Cmax in Sprague-Dawley rat after 6 hrs at 100 mg/kg, po; type: ADME, organism-based; set-up: dose 100 mg/kg, route oral; details: in vivo
# Rattus norvegicus [15] = test: AUC (0-6hrs) in Sprague-Dawley rat at 10 mg/kg, po; type: ADME, organism-based, Plasma; set-up: time < 6 hr, dose 10 mg/kg, route oral; details: in vivo
# Rattus norvegicus [16] = test: AUC (0-6hrs) in Sprague-Dawley rat at 100 mg/kg, po; type: ADME, organism-based, Plasma; set-up: time < 6 hr, dose 100 mg/kg, route oral; details: in vivo
# Liver microsomes [17] = test: Protein binding in rat liver microsomes in presence of NADPH after 1 hr at 10 uM; type: ADME, Microsome
# Liver microsomes [18] = test: Covalent protein binding in human liver microsomes in presence of NADPH after 1 hr at 10 uM; type: ADME, Microsome
# Hepatocyte [19] = test: Covalent protein binding in rat hepatocyte after 2 hrs at 10 uM; type: ADME, cell-based; details: hepatocytes
# Hepatocyte [20] = test: Protein binding in human hepatocyte after 2 hrs at 10 uM; type: ADME, cell-based; details: hepatocytes
# [21] = target: T1, Prostaglandin D2 receptor (Homo sapiens, UniProt Q13258); test: Binding affinity to human DP receptor expressed in HEK293 cells; type: cell-based
# T1 sequence (Q13258 whole entry): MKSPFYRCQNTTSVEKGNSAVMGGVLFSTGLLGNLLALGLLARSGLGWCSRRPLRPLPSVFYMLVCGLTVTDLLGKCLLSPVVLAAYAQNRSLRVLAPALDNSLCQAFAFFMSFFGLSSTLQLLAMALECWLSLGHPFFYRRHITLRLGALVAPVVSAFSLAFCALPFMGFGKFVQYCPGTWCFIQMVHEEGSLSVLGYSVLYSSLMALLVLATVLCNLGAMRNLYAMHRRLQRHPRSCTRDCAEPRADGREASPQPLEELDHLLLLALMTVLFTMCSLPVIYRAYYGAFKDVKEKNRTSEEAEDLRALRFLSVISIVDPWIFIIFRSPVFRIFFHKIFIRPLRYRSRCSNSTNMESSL
# Thromboxane A2 receptor = target: T2, Thromboxane A2 receptor (Homo sapiens, UniProt P21731); test: Binding affinity to human TP receptor expressed in HEK293 cells; type: cell-based
# T2 sequence (P21731 whole entry): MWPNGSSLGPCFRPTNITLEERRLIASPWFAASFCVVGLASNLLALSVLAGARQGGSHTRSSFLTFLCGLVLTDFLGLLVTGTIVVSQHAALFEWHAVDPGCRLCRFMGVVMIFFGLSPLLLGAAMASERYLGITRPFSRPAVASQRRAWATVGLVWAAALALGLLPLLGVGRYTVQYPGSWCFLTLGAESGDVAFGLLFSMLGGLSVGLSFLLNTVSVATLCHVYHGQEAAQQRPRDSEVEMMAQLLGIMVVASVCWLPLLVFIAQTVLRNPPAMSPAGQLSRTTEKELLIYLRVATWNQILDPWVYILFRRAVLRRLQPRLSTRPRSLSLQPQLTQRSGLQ
# [22] = target: T3, Prostaglandin E2 receptor EP1 subtype (Homo sapiens, UniProt P34995); test: Binding affinity to human EP1 receptor expressed in HEK293 cells; type: cell-based
# T3 sequence (P34995 whole entry): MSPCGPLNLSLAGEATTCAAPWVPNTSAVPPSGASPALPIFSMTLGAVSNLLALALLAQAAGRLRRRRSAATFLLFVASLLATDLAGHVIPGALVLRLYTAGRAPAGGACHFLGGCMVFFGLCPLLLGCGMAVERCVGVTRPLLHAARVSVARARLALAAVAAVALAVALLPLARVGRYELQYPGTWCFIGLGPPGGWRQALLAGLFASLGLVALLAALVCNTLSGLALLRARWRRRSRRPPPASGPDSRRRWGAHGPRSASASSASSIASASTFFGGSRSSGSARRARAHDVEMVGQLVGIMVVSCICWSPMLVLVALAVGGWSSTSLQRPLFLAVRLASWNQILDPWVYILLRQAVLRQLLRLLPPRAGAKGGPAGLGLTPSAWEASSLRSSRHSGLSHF
# [23] = target: Prostaglandin E2 receptor EP2 subtype (Homo sapiens, UniProt P43116); test: Binding affinity to human EP2 receptor expressed in HEK293 cells; type: cell-based
# [24] = target: T4, Prostaglandin E2 receptor EP3 subtype (Homo sapiens, UniProt P43115); test: Binding affinity to human EP3 receptor expressed in HEK293 cells; type: cell-based
# T4 sequence (P43115 whole entry): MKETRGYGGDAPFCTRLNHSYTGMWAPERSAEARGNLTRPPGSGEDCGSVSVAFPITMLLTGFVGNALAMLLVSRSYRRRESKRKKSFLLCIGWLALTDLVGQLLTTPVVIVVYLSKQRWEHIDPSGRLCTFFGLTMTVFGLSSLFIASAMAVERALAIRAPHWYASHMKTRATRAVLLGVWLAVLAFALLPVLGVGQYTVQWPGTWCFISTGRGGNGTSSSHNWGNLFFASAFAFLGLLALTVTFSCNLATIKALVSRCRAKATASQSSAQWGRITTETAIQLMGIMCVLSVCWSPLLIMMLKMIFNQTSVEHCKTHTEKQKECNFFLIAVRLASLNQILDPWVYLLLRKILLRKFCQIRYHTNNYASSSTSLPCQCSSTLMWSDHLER
# [25] = target: Prostaglandin F2-alpha receptor (Homo sapiens, UniProt P43088); test: Binding affinity to human FP receptor expressed in HEK293 cells; type: cell-based
# Prostacyclin receptor = Prostacyclin receptor (Homo sapiens, UniProt P43119); test: Binding affinity to human IP receptor expressed in HEK293 cells; type: cell-based
# [26] = target: T1, Prostaglandin D2 receptor; test: Activity at human DP receptor in washed platelets assessed as inhibition of PGD2-induced cAMP accumulation; type: functional
# [27] = target: T1, Prostaglandin D2 receptor; test: Activity at human DP receptor in platelet rich plasma assessed as inhibition of PGD2-induced cAMP accumulation; type: functional
# [28] = Plasma concentration in sheep allergic rhinitis model after 30 mins at 0.03 mg/kg, iv
# [29] = Plasma concentration in sheep allergic rhinitis model after 30 mins at 0.1 mg/kg, iv
# Prostaglandin E2 receptor EP4 subtype, sequence (P35408 whole entry): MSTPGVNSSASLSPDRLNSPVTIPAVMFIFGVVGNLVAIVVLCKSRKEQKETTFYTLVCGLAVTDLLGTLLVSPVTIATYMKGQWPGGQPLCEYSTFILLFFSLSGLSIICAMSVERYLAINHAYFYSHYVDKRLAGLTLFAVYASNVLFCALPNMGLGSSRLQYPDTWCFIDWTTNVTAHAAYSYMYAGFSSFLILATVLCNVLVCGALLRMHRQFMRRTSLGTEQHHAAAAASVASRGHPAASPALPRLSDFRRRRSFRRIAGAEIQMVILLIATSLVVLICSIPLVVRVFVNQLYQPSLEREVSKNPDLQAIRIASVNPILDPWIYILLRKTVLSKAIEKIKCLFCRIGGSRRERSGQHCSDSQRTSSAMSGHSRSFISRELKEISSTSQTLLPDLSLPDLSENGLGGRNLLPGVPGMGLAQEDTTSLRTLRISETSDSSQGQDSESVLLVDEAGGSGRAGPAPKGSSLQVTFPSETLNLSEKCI
# Prostaglandin F2-alpha receptor, sequence (P43088 whole entry): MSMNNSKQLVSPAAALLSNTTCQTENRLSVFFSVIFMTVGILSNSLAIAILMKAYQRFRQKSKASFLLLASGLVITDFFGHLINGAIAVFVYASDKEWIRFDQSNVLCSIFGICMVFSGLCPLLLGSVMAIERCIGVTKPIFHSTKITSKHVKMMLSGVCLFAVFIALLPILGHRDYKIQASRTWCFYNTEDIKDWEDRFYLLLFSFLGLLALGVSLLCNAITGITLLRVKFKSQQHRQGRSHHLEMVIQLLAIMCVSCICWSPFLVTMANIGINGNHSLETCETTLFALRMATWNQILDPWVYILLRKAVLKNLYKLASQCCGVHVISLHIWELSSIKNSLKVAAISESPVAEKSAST
# Prostacyclin receptor, sequence (P43119 whole entry): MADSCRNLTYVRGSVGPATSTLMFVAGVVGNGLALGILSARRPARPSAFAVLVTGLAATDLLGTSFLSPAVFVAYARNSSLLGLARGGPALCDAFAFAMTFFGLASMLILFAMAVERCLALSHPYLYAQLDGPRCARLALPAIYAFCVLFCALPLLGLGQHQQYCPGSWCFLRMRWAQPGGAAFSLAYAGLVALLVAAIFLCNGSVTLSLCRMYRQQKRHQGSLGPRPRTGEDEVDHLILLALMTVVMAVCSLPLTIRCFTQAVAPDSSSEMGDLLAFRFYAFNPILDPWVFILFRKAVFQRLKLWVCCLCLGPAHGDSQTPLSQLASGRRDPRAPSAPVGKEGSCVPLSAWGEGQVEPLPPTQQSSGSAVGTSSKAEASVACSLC
# Prostaglandin E2 receptor EP2 subtype, sequence (P43116 whole entry): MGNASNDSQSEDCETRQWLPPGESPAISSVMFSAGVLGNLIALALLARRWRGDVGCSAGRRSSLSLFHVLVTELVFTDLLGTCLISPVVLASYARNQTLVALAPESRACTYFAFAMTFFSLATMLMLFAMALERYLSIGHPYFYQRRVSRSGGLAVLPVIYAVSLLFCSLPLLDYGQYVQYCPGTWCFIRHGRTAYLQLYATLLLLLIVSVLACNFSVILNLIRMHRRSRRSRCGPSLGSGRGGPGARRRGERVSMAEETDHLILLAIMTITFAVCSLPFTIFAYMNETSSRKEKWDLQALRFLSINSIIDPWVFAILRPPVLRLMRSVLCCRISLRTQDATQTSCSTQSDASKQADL
smiles,measurement,setting,value
CC(O)c1cc(S(C)(=O)=O)cc2c3c(n(Cc4ccc(Cl)cc4)c12)[C@@H](CC(=O)O)CC3 (stereo not given in full),Ki,[1],> 20 µM
same,"remaining at 2 h, 50 µM",[2],100%
same,IC50,[3],43 µM
CS(=O)(=O)c1cc(F)cc2c3c(n(Cc4ccc(Cl)cc4)c12)[C@@H](CC(=O)[O-])CC3.[Na+],bioavailability,[4],79%
same,clearance,[5],2.4
same,Vdss,[6],0.5 Not_given
same,Cmax,[7],39 µM
same,Cmax,[8],6.3 µM
same,half-life,[9],420 min
same,Cmax,[10],103 µM
same,Tmax,[11],0.5 h
CC(=O)c1cc(S(C)(=O)=O)cc2c3c(n(Cc4ccc(Cl)cc4)c12)[C@@H](CC(=O)[O-])CC3.[Na+],bioavailability,[4],128%
same,clearance,[5],14
same,Vdss,[6],0.7 Not_given
same,Cmax,[7],21 µM
same,Cmax,Rattus norvegicus [12],600 nM
same,half-life,[9],84 min
same,Cmax,[10],1100 µM
same,Tmax,[11],0 h
same,Cmax,[13],31 µM
same,Cmax,[14],7 µM
same,AUC,Rattus norvegicus [15],1800 µM·min
same,AUC,Rattus norvegicus [16],120 µM·h
CC(=O)c1cc(F)cc2c3c(n(Cc4ccc(Cl)cc4)c12)[C@@H](CC(=O)[O-])CC3.[Na+],bioavailability,[4],52%
same,clearance,[5],1.9
same,Vdss,[6],0.5 Not_given
same,Cmax,[7],21 µM
same,Cmax,[8],7.5 µM
same,half-life,[9],240 min
same,Cmax,[10],81 µM
same,Tmax,[11],2.5 h
CC(O)c1cc(S(C)(=O)=O)cc2c3c(n(Cc4ccc(Cl)cc4)c12)[C@@H](CC(=O)[O-])CC3.[Na+] (stereo not given in full),bioavailability,[4],8%
same,clearance,[5],50
same,Vdss,[6],0.8 Not_given
same,Cmax,[7],0.29 µM
same,Cmax,[8],0.03 µM
same,half-life,[9],< 60 min
same,Cmax,[10],3900 µM
same,Tmax,[11],0 h
O=[14C](O)C[C@H]1CCc2c1n(Cc1ccc(Cl)cc1)c1c(Br)cc(F)cc21,Activity,Liver microsomes [17],460 pmol/mg/h
same,Activity,Liver microsomes [18],33 pmol/mg/h
same,Activity,Hepatocyte [19],74 pmol/mg/h
same,Activity,Hepatocyte [20],33 pmol/mg/h
[3H]C([3H])([3H])S(=O)(=O)c1cc(C(C)O)c2c(c1)c1c(n2Cc2ccc(Cl)cc2)[C@@H](CC(=O)O)CC1 (stereo not given in full),Activity,Liver microsomes [17],13 pmol/mg/h
same,Activity,Liver microsomes [18],9 pmol/mg/h
same,Activity,Hepatocyte [19],9 pmol/mg/h
same,Activity,Hepatocyte [20],< 5 pmol/mg/h
CC(=O)c1cc(F)cc2c3c(n(Cc4ccc(Cl)cc4)c12)[C@@H](C[14C](=O)O)CC3,Activity,Liver microsomes [17],290 pmol/mg/h
same,Activity,Liver microsomes [18],46 pmol/mg/h
same,Activity,Hepatocyte [19],45 pmol/mg/h
same,Activity,Hepatocyte [20],16 pmol/mg/h
O=C([O-])C[C@H]1CCc2c1n(Cc1ccc(Cl)cc1)c1c(Br)cc(F)cc21.[Na+],bioavailability,[4],41%
same,clearance,[5],1.4
same,Vdss,[6],0.4 Not_given
same,Cmax,[7],10 µM
same,Cmax,[8],3.7 µM
same,half-life,[9],720 min
same,Cmax,[10],29 µM
same,Tmax,[11],1 h
CC(=O)c1cc(S(C)(=O)=O)cc2c3c(n(Cc4ccc(Cl)cc4)c12)[C@@H](CC(=O)O)CC3,"remaining at 2 h, 50 µM",[2],93%
same,IC50,[3],8.4 µM
CC(=O)c1cc(F)cc2c3c(n(Cc4ccc(Cl)cc4)c12)[C@@H](CC(=O)O)CC3,Ki,[21],1.1 nM (antagonist)
same,Ki,Thromboxane A2 receptor,14 nM (antagonist)
same,Ki,[22],> 9 µM
same,Ki,[23],310 nM (antagonist)
same,Ki,[24],1200 nM
same,Ki,[1],> 20 µM
same,Ki,[25],> 20 µM
same,Ki,Prostacyclin receptor,14 µM
same,IC50,[26],0.29 nM (antagonist)
same,IC50,[27],15 nM (antagonist)
same,"remaining at 2 h, 50 µM",[2],35%
[3H]C([3H])([3H])S(=O)(=O)c1cc(C(C)=O)c2c(c1)c1c(n2Cc2ccc(Cl)cc2)[C@@H](CC(=O)O)CC1,Activity,Liver microsomes [17],23 pmol/mg/h
same,Activity,Liver microsomes [18],18 pmol/mg/h
same,Activity,Hepatocyte [19],8 pmol/mg/h
same,Activity,Hepatocyte [20],5 pmol/mg/h
O=C(O)C[C@H]1CCc2c1n(Cc1ccc(Cl)cc1)c1c(Br)cc(F)cc21,Ki,[21],1.5 nM (antagonist)
same,Ki,Thromboxane A2 receptor,0.84 nM (antagonist)
same,Ki,[22],4.4 µM
same,Ki,[23],410 nM (antagonist)
same,Ki,[24],470 nM (antagonist)
same,Ki,[1],4.4 µM
same,Ki,[25],14 µM
same,Ki,Prostacyclin receptor,0.4 µM (antagonist)
same,IC50,[26],0.26 nM (antagonist)
same,IC50,[27],23 nM (antagonist)
same,"remaining at 2 h, 50 µM",[2],42%
CS(=O)(=O)c1cc(F)cc2c3c(n(Cc4ccc(Cl)cc4)c12)[C@@H](CC(=O)O)CC3 [LAROPIPRANT],"remaining at 2 h, 50 µM",[2],32%
same,concentration at 0.5 h,[28],91 nM
same,concentration at 0.5 h,[29],670 nM
